# Assay results: patent US8309582B2, “Small molecule Bcl-Xl/Bcl-2 binding inhibitors” (The Ohio State University Research Foundation, priority 2004, dated 2012)
# Where two headings read alike, the source gives them in different places.
# Assays:
# Bcl-xL = biological target: T1, Bcl-xL (Homo sapiens, UniProt Q07817); assay: Competitive fluorescence polarization assay, displacement of Flu-BakBH3 peptide from Bcl-xL; format: binding
# T1 construct: fused on or other part: His tag
# Procedure: (§1) Competitive Fluorescence Polarization Assay. The binding affinity of the test agent to Bcl-2 and Bcl-xL was analyzed by a competitive fluorescence polarization assay, in which the ability of the agent to displace the binding of a Bak BH3-domain peptide to either Bcl-2 or Bcl-xL was determined. Flu-BakBH3, a Bak-BH3 peptide labeled at the N-terminus with fluorescein, was purchased from Genemed Synthesis (San Francisco, Calif.). C-Terminal-truncated, His-tagged Bcl-xL was purchased from EMD Biosciences (San Diego, Calif.), and soluble GST-fused Bcl-2 was obtained from Santa Cruz (Santa Cruz, Calif.). The KD determination was carried out in a dual-pathlength quartz cell with readings taken at […] at room temperature using a luminescence spectrometer according to an established procedure (17). Determination of IC50 values. Data from cell viability and FP assays were analyzed by using the CalcuSyn software (Biosoft, Ferguson, Mo.) to determine IC50 values, in which the calculation was based on the medium effect equation (18), i.e., Log(fa/fu)=m log(D)−m log(Dm) (equation 1), where fa and fu denote fraction affected and unaffected, respectively; m represents the Hill-type coefficient signifying the sigmoidicity of the dose-effect curve; D and Dm are the dose used and IC50, respectively.
# Bcl-2 = Bcl-2 (Homo sapiens, UniProt P10415); assay: Competitive fluorescence polarization assay, displacement of Flu-BakBH3 peptide from Bcl-2; format: binding
# Sequence of Bcl-2 (P10415 whole entry): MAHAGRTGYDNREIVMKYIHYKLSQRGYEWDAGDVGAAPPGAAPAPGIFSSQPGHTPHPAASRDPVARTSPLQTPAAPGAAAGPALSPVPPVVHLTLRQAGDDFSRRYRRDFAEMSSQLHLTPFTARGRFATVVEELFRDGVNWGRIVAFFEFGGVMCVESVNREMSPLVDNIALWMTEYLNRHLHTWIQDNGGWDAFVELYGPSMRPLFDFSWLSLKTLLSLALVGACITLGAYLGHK
# Procedure: as §1
# PC-3 cells = assay: Cell viability analysis (MTT) in PC-3 cells; format: cell-based; conditions: read-out: IC50 (μM) PC3
# Procedure: Cell viability analysis. The effect of individual test agents on cell viability was assessed by using the MTT {[3-(4,5-dimethylthiazol-2-yl)-2,5-diphenyl-2H-tetrazolium bromide]} assay in six to twelve replicates. […] Controls received DMSO vehicle at a concentration equal to that in drug-treated cells. […] Supernatants were removed from the wells, and the reduced MTT dye was solubilized in 200 μl/well DMSO. Absorbance at 570 nm was determined on a plate reader.
# (§2) Determination of IC50 values. Data from cell viability and FP assays were analyzed by using the CalcuSyn software (Biosoft, Ferguson, Mo.) to determine IC50 values, in which the calculation was based on the medium effect equation (18), i.e., Log(fa/fu)=m log(D)−m log(Dm) (equation 1), where fa and fu denote fraction affected and unaffected, respectively; m represents the Hill-type coefficient signifying the sigmoidicity of the dose-effect curve; D and Dm are the dose used and IC50, respectively.
# LNCaP cells = assay: Cell viability analysis (MTT) in LNCaP cells; format: cell-based; conditions: Homo sapiens
# Procedure: (§3) Cell viability analysis. The effect of individual test agents on cell viability was assessed by using the MTT {[3-(4,5-dimethylthiazol-2-yl)-2,5-diphenyl-2H-tetrazolium bromide]} assay in six to twelve replicates. Cells were seeded and incubated in 96-well, flat-bottomed plates in serum-free media for 24 h, and were exposed to various concentrations of test agents dissolved in DMSO (final concentration, 0.1%) in serum-free RPMI 1640 medium for different time intervals. Controls received DMSO vehicle at a concentration equal to that in drug-treated cells. The medium was removed, replaced by 200 μl of 0.5 mg/ml of MTT in 10% FBS-containing RPMI-1640 medium, and cells were incubated in the CO2 incubator at 37° C. for 2 h. Supernatants were removed from the wells, and the reduced MTT dye was solubilized in 200 μl/well DMSO. Absorbance at 570 nm was determined on a plate reader.
# as §2
# [1] = WB (IC50 for WB, Tables 1-9); format: cell-based; conditions: marker, cell line and unit inferred
# Procedure: (§4) Immunoblotting. Cells in T-75 flasks were collected by scraping, and suspended in 60 μl of phosphate-buffered saline (PBS). Two μl of the suspension was taken for protein analysis using the Bradford assay kit (Bio-Rad, Hercules, Calif.). To the remaining solution was added the same volume of 2×SDS-PAGE sample loading buffer (100 mM Tris-HCl, pH 6.8, 4% SDS, 5% β-mercaptoethanol 20% glycerol, and 0.1% bromophenol blue). The mixture was sonicated briefly, and boiled for 5 min. Equal amounts of proteins were loaded onto 10% SDS-PAGE gels.
# (§5) After electrophoresis, protein bands were transferred to nitrocellulose membranes in a semidry transfer cell. The transblotted membrane was washed twice with Tris-buffered saline (TBS) containing 0.1% Tween 20 (TBST). After blocking with TBST containing 5% nonfat milk for 40 min, the membrane was incubated with the appropriate primary antibody in TBST-1% nonfat milk at 4° C. overnight. All primary antibodies were diluted 1:1000 in 1% nonfat milk-containing TBST. After treatment with the primary antibody, the membrane was washed three times with TBST for a total of 15 min, followed by incubation with goat anti-rabbit or anti-mouse IgG-horseradish peroxidase conjugates (diluted 1:5000) for 1 h at room temperature and three washes with TBST for a total of 1 h. The immunoblots were visualized by enhanced chemiluminescence.
# [2] = MTT assay (IC50 for MTT, Tables 1-9); format: cell-based; conditions: cell line and unit inferred
# Procedure: as §3, §2
# PPARγ = biological target: T2, PPARγ (Homo sapiens, UniProt P37231); assay: Analysis of PPARγ activation (transcription factor ELISA, PC-3 nuclear extracts); format: cell-based; conditions: PC-3 cells, 10 μM, 48 h, versus DMSO vehicle
# T2 construct: endogenous in cells; host or cells: PC-3 prostate cancer cells
# T2 sequence (P37231 1-505): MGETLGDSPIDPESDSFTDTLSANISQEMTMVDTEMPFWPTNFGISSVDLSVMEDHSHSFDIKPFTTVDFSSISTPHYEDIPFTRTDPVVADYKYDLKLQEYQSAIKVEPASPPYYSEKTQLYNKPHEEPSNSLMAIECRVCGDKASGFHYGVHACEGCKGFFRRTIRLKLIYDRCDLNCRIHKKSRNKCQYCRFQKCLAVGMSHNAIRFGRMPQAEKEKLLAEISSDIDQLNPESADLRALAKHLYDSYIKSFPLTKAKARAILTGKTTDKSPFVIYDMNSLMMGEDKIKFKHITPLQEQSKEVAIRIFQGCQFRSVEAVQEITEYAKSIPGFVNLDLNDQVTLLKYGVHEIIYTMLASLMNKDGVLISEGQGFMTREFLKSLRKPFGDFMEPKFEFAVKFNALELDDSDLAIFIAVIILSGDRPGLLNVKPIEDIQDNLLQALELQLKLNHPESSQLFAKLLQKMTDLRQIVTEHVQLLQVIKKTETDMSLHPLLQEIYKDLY
# Procedure: Analysis of PPARγ activation. The analysis was carried out by using a PPARγ transcription factor ELISA kit (Active Motif, Carlsbad, Calif.), in which an oligonucleotide containing the peroxisome proliferator response element (PPRE) was immobilized onto a 96-well plate. PPARs contained in nuclear extracts bind specifically to this oligonucleotide and are detected through an antibody directed against PPARγ. […] Cells were collected, and nuclear extracts were prepared with a Nuclear Extract kit (Active Motif, Carlsbad, Calif.). Nuclear extracts of the same protein concentration from individual treatments were subject to the PPARγ transcription factor ELISA according to the manufacturer's instruction.
# PC-3 xenograft tumors = assay: Xenograft tumor growth (PC-3 tumors in nude mice)
# Bcl-2/Bak = biological target: T3, Bcl-2/Bak (Homo sapiens, UniProt P10415); assay: Co-immunoprecipitation of Bak with Bcl-2 in PC-3 cells; format: cell-based; conditions: 50 μM, 12 h, compared to DMSO control
# T3 construct: endogenous in cells; host or cells: PC-3 prostate cancer cells
# T3 sequence (P10415 whole entry): as the sequence (P10415 whole entry) above
# Procedure: (§6) Co-immunoprecipitation. […] After centrifugation at 13000×g for 15 min, the supernatants were collected, pre-incubated with protein A-Sepharose (Sigma, St. Louis, Mo.) for 15 min, and centrifuged at 1000×g for 5 min. The supernatants were exposed to Bcl-2 or Bcl-xL antibodies in the presence of protein A-Sepharose at 4° C. for 2 h. After brief centrifugation, protein A-Sepharose were collected, washed with the aforementioned lysis buffer 2 times, suspended in 2×SDS sample buffer, and subjected to Western blot analysis with antibodies against Bak.
# Bcl-xL/Bak = biological target: T4, Bcl-xL/Bak (Homo sapiens, UniProt Q07817); assay: Co-immunoprecipitation of Bak with Bcl-xL in PC-3 cells; format: cell-based; conditions: 50 μM, 12 h, compared to DMSO control
# T4 construct: endogenous in cells; host or cells: PC-3 prostate cancer cells
# T4 sequence (Q07817 whole entry): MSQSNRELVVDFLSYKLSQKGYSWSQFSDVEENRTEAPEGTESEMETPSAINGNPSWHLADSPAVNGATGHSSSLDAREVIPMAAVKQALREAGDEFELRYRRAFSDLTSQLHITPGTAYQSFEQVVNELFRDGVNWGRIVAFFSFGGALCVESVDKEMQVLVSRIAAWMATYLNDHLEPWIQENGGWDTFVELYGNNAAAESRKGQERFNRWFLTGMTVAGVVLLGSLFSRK
# Procedure: as §6
# caspase-9 = assay: Caspase-9 activation in PC-3 cells (Western blot); format: cell-based; conditions: 24 h
# Procedure: as §4, §5
# [3] = inhibition of Bak BH3 peptide binding to Bcl-xL, FP, read-out: IC50 Bcl-xl/Bak
# [4] = inhibition of Bak BH3 peptide binding to Bcl-2, FP, read-out: IC50 Bcl-2/Bak
# T1 sequence (Q07817 1-209 limits assumed): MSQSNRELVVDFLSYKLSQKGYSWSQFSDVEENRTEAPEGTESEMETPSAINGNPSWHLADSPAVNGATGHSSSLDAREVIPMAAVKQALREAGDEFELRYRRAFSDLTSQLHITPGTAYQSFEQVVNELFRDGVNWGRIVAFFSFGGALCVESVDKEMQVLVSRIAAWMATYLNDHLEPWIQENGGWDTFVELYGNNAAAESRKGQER
Compound,IC50 (Bcl-xL; [3]),IC50 (Bcl-2; [4]),"IC50 (PC-3 cells; Homo sapiens, PC-3, PC-3 cells)",IC50 [1],IC50 [2],activity in PPARγ activation (PPARγ),other results
"Cc1c(C)c2c(c(C)c1O)CCC(C)(COc1ccc(CC3SC(=O)NC3=O)cc1)O2 (centres unmarked) [TG, troglitazone, reference compound]",22 ± 1 µM,22 ± 1 µM,30 ± 2 µM,,,,IC50 (LNCaP cells): 22 ± 3 µM
CC(C)=CCOc1c(C)c(C)c2c(c1C)CCC(C)(COc1ccc(/C=C3\SC(=O)NC3=O)cc1Br)O2 (centres unmarked) [TG-88],1.8 ± 0.2 µM,2.8 ± 0.3 µM,2.5 ± 0.2 µM,> 7.5 µM,,lacked appreciable activity,"extent of tumor growth inhibition (PC-3 xenograft tumors; 100 mg/kg/day oral, after 63 days of treatment): 50%; extent of tumor growth inhibition (PC-3 xenograft tumors; 200 mg/kg/day oral, after 63 days of treatment): 61%; tolerability, signs of toxicity (PC-3 xenograft tumors; 100 and 200 mg/kg/day oral, nude mice): without observable signs of toxicity; body weights (PC-3 xenograft tumors; 100 and 200 mg/kg/day oral, throughout the course of study): stable body weights; gross pathology at necropsy (PC-3 xenograft tumors; after 63 days of treatment): No gross pathological abnormalities; IC50 (PC-3 cells; PC-3 cells): 4.2 ± 0.2 µM"
"CC1(COc2ccc(/C=C3\SC(=O)NC3=O)cc2)CCCCC1 [Δ2-CG, 5-[4-(1-methyl-cyclohexylmethoxy)-benzylidene]-thiazolidine-2,4-dione]",17 ± 2 µM,22 ± 3 µM,15 ± 1.2 µM,13 µM,70 µM,completely devoid of the ligand binding activity,
"CCc1ccc(CCOc2ccc(/C=C3\SC(=O)NC3=O)cc2)nc1 [Δ2-PG, 5-{4-[2-(5-ethyl-pyridin-2-yl)-ethoxy]-benzylidene}-thiazolidine-2,4-dione]",> 50 µM,> 50 µM,> 50 µM,,,completely devoid of the ligand binding activity,"IC50 (Bcl-xL; unit inferred, read-out: IC50 for inhibiting BH3-mediated protein interactions (Bcl-xL)): > 50 µM; IC50 (Bcl-2; unit inferred, read-out: IC50 for inhibiting BH3-mediated protein interactions (Bcl-2)): > 50 µM"
"Cc1c(C)c2c(c(C)c1O)CCC(C)(COc1ccc(/C=C3\SC(=O)NC3=O)cc1)O2 (centres unmarked) [Δ2-TG, 5-[4-(6-hydroxy-2,5,7,8-tetramethyl-chroman-2-ylmethoxy)-benzylidene]-2,4-thiazolidine-dione]",18 ± 1 µM,18 ± 1 µM,20 ± 2 µM,22 µM,,completely devoid of the ligand binding activity,level of Bak associated with Bcl-2 (Bcl-2/Bak): significantly reduced; level of Bak associated with Bcl-xL (Bcl-xL/Bak): significantly reduced; caspase-9 activation (caspase-9): dose-dependent; IC50 (LNCaP cells): 14 ± 1 µM

# More lines, main results first:
IC50 (Bcl-xL; [3]),IC50 (Bcl-2; [4]),"IC50 (PC-3 cells; Homo sapiens, PC-3, PC-3 cells)",IC50 [1],Compound,IC50 [2],activity in PPARγ activation (PPARγ),other results
13 ± 0.9 µM,19 ± 0.8 µM,19 ± 0.5 µM,> 7.5 µM,Cc1c(C)c2c(c(C)c1OC/C=C/c1ccccc1)CCC(C)(COc1ccc(/C=C3\SC(=O)NC3=O)cc1)O2 (centres unmarked) [TG-10],19 µM,,
28 ± 1.4 µM,30 ± 1.5 µM,22 ± 0.6 µM,> 7.5 µM,Cc1c(C)c2c(c(C)c1OC(=O)CCC(=O)O)CCC(C)(COc1ccc(/C=C3\SC(=O)NC3=O)cc1)O2 (centres unmarked) [TG-13],> 50 µM,,
4.9 ± 1.2 µM,4.7 ± 2 µM,30 ± 1.1 µM,> 7.5 µM,CC(C)=CCOc1c(C)c(C)c2c(c1C)CCC(C)(COc1ccc(/C=C3\SC(=O)NC3=O)cc1-c1ccc(C(F)(F)F)cc1)O2 (centres unmarked) [TG-31],> 50 µM,,
18 ± 0.8 µM,21 ± 1.4 µM,17 ± 0.9 µM,> 7.5 µM,CCc1ccc(-c2cc(/C=C3\SC(=O)NC3=O)ccc2OCC2(C)CCc3c(C)c(OCC=C(C)C)c(C)c(C)c3O2)cc1 (centres unmarked) [TG-33],> 50 µM,,
